Laboratory results from patent publication US20150315188A1, “COMPOUNDS AND METHODS FOR TREATMENT OF HYPERTENSION” (MEDIVATION TECHNOLOGIES, INC., priority 2012, published 2015).
pIC50, pKi: −log10 of the molar value.

Experiments:
[1] = molecular target: T1, Human adrenergic α1B receptor (Homo sapiens, UniProt P35368); test: Radioligand binding, adrenergic α1B (Protocol Group B); set-up: purchased Milipore (Millipore); conditions: Protocol Group B; for pKi: estimated Ki
T1 sequence (P35368 1-520): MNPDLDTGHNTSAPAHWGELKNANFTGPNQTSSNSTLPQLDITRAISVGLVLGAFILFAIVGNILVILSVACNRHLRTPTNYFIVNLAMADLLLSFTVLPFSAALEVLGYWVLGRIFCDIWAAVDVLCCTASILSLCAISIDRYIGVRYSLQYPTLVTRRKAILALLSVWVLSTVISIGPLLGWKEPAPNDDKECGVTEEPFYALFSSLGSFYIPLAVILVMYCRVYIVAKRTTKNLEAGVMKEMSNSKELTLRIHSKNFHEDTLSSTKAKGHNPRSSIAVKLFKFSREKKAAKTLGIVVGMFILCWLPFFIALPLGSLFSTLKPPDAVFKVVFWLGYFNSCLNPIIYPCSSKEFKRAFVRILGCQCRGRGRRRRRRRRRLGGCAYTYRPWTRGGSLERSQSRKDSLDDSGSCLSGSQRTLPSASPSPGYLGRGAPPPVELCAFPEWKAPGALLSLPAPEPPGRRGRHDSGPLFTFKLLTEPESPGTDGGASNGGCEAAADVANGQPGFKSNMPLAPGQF
Method in brief: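 Values are percent inhibition of specific [3H]prazosin (0.3 nM) binding or estimated Ki, from filtration counting. Human α1B recombinant membranes, Tris-HCl pH 7.4 buffer with MgCl2 and EDTA, 60 min at 25 °C, 1% DMSO vehicle; 10 μM prazosin defined nonspecific binding.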

[2] = molecular target: T2, Human adrenergic α2A receptor (Homo sapiens, UniProt P08913); test: Radioligand binding, adrenergic α2A (Protocol Group B); set-up: purchased Milipore (Millipore); conditions: Protocol Group B; for pKi: estimated Ki
T2 sequence (P08913 1-465): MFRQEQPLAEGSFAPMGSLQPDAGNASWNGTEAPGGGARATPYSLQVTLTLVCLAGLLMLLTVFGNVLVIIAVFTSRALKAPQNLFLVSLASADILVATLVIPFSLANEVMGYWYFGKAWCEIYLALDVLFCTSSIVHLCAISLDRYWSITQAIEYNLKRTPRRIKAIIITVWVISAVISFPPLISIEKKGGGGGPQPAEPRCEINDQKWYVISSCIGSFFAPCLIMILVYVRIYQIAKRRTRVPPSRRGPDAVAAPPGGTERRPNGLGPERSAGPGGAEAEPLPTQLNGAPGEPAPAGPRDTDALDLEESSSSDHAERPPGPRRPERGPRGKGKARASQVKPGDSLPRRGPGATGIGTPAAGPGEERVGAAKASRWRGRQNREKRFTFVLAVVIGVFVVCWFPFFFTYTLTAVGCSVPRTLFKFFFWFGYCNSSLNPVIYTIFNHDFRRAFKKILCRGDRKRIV
Method in brief: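 Compounds (1% DMSO vehicle, various concentrations) competed against 2 nM [^3H]MK-912 on recombinant receptor membranes for 60 min at 25° C, Tris-HCl pH 7.4 buffer with Mg2+, Ca2+, BSA. Bound radioligand filtered and counted; 10 μM rauwolscine set nonspecific binding. Values: percent inhibition of specific binding or estimated Ki.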

[3] = molecular target: T2, Human adrenergic α2A receptor; test: β-Arrestin GPCR functional assay, adrenergic α2A (Protocol B); type: cell-based; conditions: β-arrestin, antagonist vs nor-epinephrine EC80
Method: (§1) To evaluate the activity of compounds in β-Arrestin GPCR functional assays, recombinant CHO cell line (DiscoveRX), over expressed with human adrenergic α2A receptor were used. The experiment was done with kit of DiscoveRX as per recommended protocol of the supplier. Cells were harvested from culture flask using cell dissociation solution (CDS) and plated at a density of 12,000 cells/well in CP reagent (supplied with the kit) in a half area 96-well white polystyrene plate. After 24 h incubation at 37° C., compounds at various concentrations in 1% (final) DMSO were charged to the cells for 30 min at 37° C. Active nor-epinephrine (-NE) at its EC80 concentrations (270 nM) were then added to the cells and incubated for another 90 min at 37° C. Detection mix was prepared by mixing of Path Hunter cell assay buffer, Emerald II solution and Galactone star solution in a ratio of 19:5:1 and incubated with the cells for 60 min at RT in the dark. The reading was taken in Envision at luminescence mode. Biochemical assay results are presented as the percent Inhibition in Table B2a, or IC50 values in Table B2b.

[4] = molecular target: T3, Human adrenergic α2B receptor (Homo sapiens, UniProt P18089); test: Radioligand binding, adrenergic α2B (Protocol Group B); set-up: purchased Milipore (Millipore); conditions: Protocol Group B; for Percentage inhibition of ligand binding, Adrenergic α2B (10 nM): 0.01 µM; for Percentage inhibition of ligand binding, Adrenergic α2B (30 nM): 0.03 µM; for pKi: estimated Ki, read-out: Ki α2B
T3 sequence (P18089 1-450): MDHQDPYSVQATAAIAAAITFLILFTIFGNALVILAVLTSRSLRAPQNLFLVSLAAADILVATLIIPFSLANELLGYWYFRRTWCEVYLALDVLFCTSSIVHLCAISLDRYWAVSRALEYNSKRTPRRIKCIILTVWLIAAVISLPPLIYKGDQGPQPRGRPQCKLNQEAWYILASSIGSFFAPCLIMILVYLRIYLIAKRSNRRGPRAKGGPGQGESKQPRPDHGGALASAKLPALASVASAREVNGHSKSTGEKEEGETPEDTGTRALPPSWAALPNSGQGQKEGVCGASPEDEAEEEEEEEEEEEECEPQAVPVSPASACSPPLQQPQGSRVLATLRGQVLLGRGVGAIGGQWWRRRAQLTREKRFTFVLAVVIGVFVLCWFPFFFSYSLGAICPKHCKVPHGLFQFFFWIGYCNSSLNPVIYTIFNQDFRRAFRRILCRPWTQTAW
Method in brief: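 Compounds at various concentrations in 1% DMSO were tested on recombinant membranes in Tris-HCl pH 7.4 buffer containing MgCl2, CaCl2 and 0.2% BSA.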

[5] = molecular target: T3, Human adrenergic α2B receptor; test: β-Arrestin GPCR functional assay, adrenergic α2B (Protocol B); type: cell-based; conditions: β-arrestin, antagonist vs nor-epinephrine EC80; read-out: IC50 Adrenergic α2B
Method: as §1, with “α2B” for “α2A”, “(50” for “(270”

Structure (SMILES)	Percentage inhibition of ligand binding, Adrenergic α1B (0.1 μM) ([1]; 0.1 μM compound) [%]	Percentage inhibition of ligand binding, Adrenergic α1B (0.3 μM) ([1]; 0.3 μM compound) [%]	pKi [1]	Percentage inhibition of ligand binding, Adrenergic α2A (0.1 μM) ([2]; 0.1 μM compound) [%]	Percentage inhibition of ligand binding, Adrenergic α2A (0.3 μM) ([2]; 0.3 μM compound) [%]	pKi [2]	pIC50 [3]	Percentage inhibition of ligand binding, Adrenergic α2B (10 nM) ([4]; 10 nM compound) [%]	Percentage inhibition of ligand binding, Adrenergic α2B (30 nM) ([4]; 30 nM compound) [%]	pKi [4]	pIC50 [5]	Percentage inhibition of ligand binding, Adrenergic α2B (0.1 μM) ([4]; 0.1 μM compound) [%]	inhibition at 0.1 µM ([1]; 0.1 μM compound, read-out: Percentage inhibition of ligand binding, Adrenergic α1B (0.1 μM)) [%]	inhibition at 0.3 µM ([1]; 0.3 μM compound, read-out: Percentage inhibition of ligand binding, Adrenergic α1B (0.3 μM)) [%]	inhibition at 0.1 µM ([2]; 0.1 μM compound, read-out: Percentage inhibition of ligand binding, Adrenergic α2A (0.1 μM)) [%]	inhibition at 0.3 µM ([2]; 0.3 μM compound, read-out: Percentage inhibition of ligand binding, Adrenergic α2A (0.3 μM)) [%]	inhibition at 0.01 µM ([4]; 10 nM compound, read-out: Percentage inhibition of ligand binding, Adrenergic α2B (10 nM)) [%]	inhibition at 0.03 µM ([4]; 30 nM compound, read-out: Percentage inhibition of ligand binding, Adrenergic α2B (30 nM)) [%]	inhibition at 0.1 µM ([4]; 0.1 μM compound, read-out: Percentage inhibition of ligand binding, Adrenergic α2B (0.1 μM)) [%]
Cc1ccc2c(c1)c1c(n2CC(C)(O)c2cccnc2)CC2CCCN2C1 (single isomer, unassigned) [38c]	2	23		7	31		5.11	43	71		6.44	92							
Cc1ccc2c(c1)c1c(n2CC(O)c2ccncc2)CNC2CCCC12 (single isomer, unassigned) [34c]			6.42			5.29				8.34	6.60		3	28	4	11	52	80	90
Cc1ccc2c(c1F)c1c(n2CC(C)(O)c2cccnc2)CCN2CCCC12 (single isomer, unassigned) [87d]	34	67		57	79	7.26	5.43	87	97	8.81	7.36								

Further compounds by rising pKi [2], results first:

Percentage inhibition of ligand binding, Adrenergic α1B (0.1 μM) ([1]; 0.1 μM compound) [%]	Percentage inhibition of ligand binding, Adrenergic α1B (0.3 μM) ([1]; 0.3 μM compound) [%]	pKi [1]	Percentage inhibition of ligand binding, Adrenergic α2A (0.1 μM) ([2]; 0.1 μM compound) [%]	Percentage inhibition of ligand binding, Adrenergic α2A (0.3 μM) ([2]; 0.3 μM compound) [%]	pKi [2]	pIC50 [3]	Percentage inhibition of ligand binding, Adrenergic α2B (10 nM) ([4]; 10 nM compound) [%]	Percentage inhibition of ligand binding, Adrenergic α2B (30 nM) ([4]; 30 nM compound) [%]	pKi [4]	pIC50 [5]	Percentage inhibition of ligand binding, Adrenergic α2B (0.1 μM) ([4]; 0.1 μM compound) [%]	inhibition at 0.1 µM ([1]; 0.1 μM compound, read-out: Percentage inhibition of ligand binding, Adrenergic α1B (0.1 μM)) [%]	inhibition at 0.3 µM ([1]; 0.3 μM compound, read-out: Percentage inhibition of ligand binding, Adrenergic α1B (0.3 μM)) [%]	inhibition at 0.1 µM ([2]; 0.1 μM compound, read-out: Percentage inhibition of ligand binding, Adrenergic α2A (0.1 μM)) [%]	inhibition at 0.3 µM ([2]; 0.3 μM compound, read-out: Percentage inhibition of ligand binding, Adrenergic α2A (0.3 μM)) [%]	inhibition at 0.01 µM ([4]; 10 nM compound, read-out: Percentage inhibition of ligand binding, Adrenergic α2B (10 nM)) [%]	inhibition at 0.03 µM ([4]; 30 nM compound, read-out: Percentage inhibition of ligand binding, Adrenergic α2B (30 nM)) [%]	inhibition at 0.1 µM ([4]; 0.1 μM compound, read-out: Percentage inhibition of ligand binding, Adrenergic α2B (0.1 μM)) [%]	Structure (SMILES)
49	76	7.45	68	85	7.56	5.78	98	100	9.03	7.82	100								Cc1cc(F)c2c(c1)c1c(n2CC(C)(O)c2ccncc2)CCN2CCCC12 (single isomer, unassigned) [81b]
15	54		74	99	7.58	5.71	104	115	9.07										CC(O)(Cn1c2c(c3cc(F)cc(Cl)c31)C1CCCN1CC2)c1cccnc1 (single isomer, unassigned) [89d]
62	86	7.58	85	94	8.05	6.10	96	99	9.04	7.89									Cc1ccc2c(c1F)c1c(n2CC(C)(O)c2cccnc2)CCN2CCCC12 (single isomer, unassigned) [87c]
